{"source": "patent US7579432B2", "about": "“Cyclic peptides as G-protein-coupled receptor antagonists” (Promics Pty Limited, priority 2001, dated 2009)", "key": {"gut ischemia-reperfusion": {"test_system": "gut ischemia-reperfusion", "test": "Intestinal ischemia-reperfusion injury in rats", "quoted_text": "Female Wistar rats (250-300 g, n=132) were fasted and given only water for 12 h prior to all experiments. Animals were anaesthetised by the intraperitoneal injection of 80 mg kg^−1 ketamine and 10 mg kg^−1 xylazine and throughout the procedure rats were placed on a heating pad to maintain normal body temperature. […] A non-traumatic occlusive device for the artery was fashioned from a silk suture looped though a length of polyethylene tubing. The SMA was occluded by applying traction to the ends of the loop. […] (1) in 5% ethanol or sterile, pyrogen-free saline in 0-2 ml volume. Infusions were made over a 2 min period. […] (1) (0.3, 1, 10 mg kg^−1) was achieved by gavage (0.2 ml saline in 25% ethanol) 60 min prior to SMA occlusion. Intestinal ischemia was induced by clamping the SMA for 30 min, after which the occlusive suture was removed, then reperfusion was monitored for another 120 min. Sham-operated rats were treated in an identical fashion, with the omission of vascular occlusion, and were infused with 0.2 ml of sterile, pyrogen-free saline or gavaged with 0.2 ml of saline in 25% ethanol. Blood samples (50 μL) were collected into heparinised Eppendorf tubes at regular intervals over the 180 min duration of the experiments for the estimation of PMN numbers. In a different series of identical experiments, whole blood was collected at regular intervals over the 180 min and allowed to clot on ice, and serum or plasma samples collected and stored at −20° C. for later measurement of tumour necrosis factor-α (TNF-α), haptoglobin (Hp) and aspartate aminotransferase (AST) concentrations. At the end of the 120 min reperfusion period, the animals were euthanased with an overdose of pentobarbital A section of the occluded ileum was removed, the lumen rinsed with saline, and the intestine was blotted dry, then weighed. Specimens were dried in an oven for 24 hours at 80° C. to obtain the tissue dry weight. Intestinal oedema was determined by assessing the wet and dry tissue weight ratio. Additionally, segments of both ischaemic and normal intestine were harvested and rinsed with saline and immediately fixed in 10% buffered formaldehyde-saline for histological studies.\nBlood (50 μL) for PMN counts was placed into heparinised tubes and then layered over an equal volume of Histopaque 1083 (Sigma, U.S.A.), PMNs were isolated and cell number counted on a haemocytometer. Concentrations of PMN's values are presented as mean percentage±SEM of the values obtained immediately prior to SMA occlusion.\nSerum TNF-α concentrations were measured using an enzyme-linked immunosorbent assay, (OptEIA, Pharmingen, USA), according to the manufacturers instructions. Concentrations of TNF-α in serum samples were determined by linear regression analysis from the standard curve.\nPlasma AST (AST/GOT; Sigma, USA) concentrations were measured according to manufacturers instructions within 48 h of collecting plasma. Plasma AST concentrations were derived from calibration curve. Results are expressed in Sigma-Franke (SF) units/ml.\nSpecimens were fixed in 10% formaldehyde-saline, embedded in paraffin wax, sectioned serially, and stained with haematoxylin and eosin. Tissues were read and scored by a trained observer in a blinded fashion. The degree of intestinal tissue injury was determined using a previously described graded scale ranging from 0-8 (Chiu et al., 1970)."}, "dermal Arthus reaction": {"test_system": "dermal Arthus reaction", "test": "Reverse passive dermal Arthus reaction in the rat", "format": "in vivo", "settings": "intravenous, oral and topical"}, "[1]": {"test_system": "neutropenia caused by i.v. LPS", "test": "LPS-induced neutropenia (endotoxaemia model)", "format": "in vivo, rat", "settings": "topical in 50% DMSO/50% H2O, 60 min before LPS 1 mg/kg i.v.", "method": "The in vivo pharmacological properties of cyclic antagonists were examined following topical dermal administration. A model of endotoxaemia was used, in which 1 mg/kg Escherichia coli […] (LPS; serotype 55:B5, Sigma, USA, stored at 100 mg ml^−1 in dH2O, 4° C.), was injected i.v into a rat, resulting in acute changes in circulating PMN levels and blood pressure. These parameters were measured in the presence and absence of C5aR antagonists (1 mg/kg i.v or 50 mg/kg/rat topically). […] Female Wistar rats weighing between 200-250 g were used for in vivo testing of all C5a receptor antagonists. Rats were anaesthetized using the procedure described above, and transferred on to a heating pad to ensure that body temperature was maintained throughout the experiment. A catheter was inserted in the femoral vein, secured with a suture and flushed with 100 μL of heparinised saline. […] All agents infused i.v were injected over a 2 min period, and were followed with a subsequent injection of 100 μL of saline to ensure complete delivery of the drug. Whole blood samples (0.1 mL) were collected from the tail vein at the time of drug and LPS or C5a administration. Samples were collected at −15, 0, 5, 10, 15, 30, 60, 90, 120 and 150 min relative to the injection of LPS (zero time), and placed in tubes containing heparin (500 Units/mL). To isolate PMNs, 100 μL of blood was layered on to 200 μL of Histopaque 1077 (Sigma U.S.A.) solution and centrifuged at 400×g for 30 min min at room temperature (25° C.). The supernatant layer of platelet-rich plasma, the monocyte and lymphocyte interface and the separation layer of Histopaque were removed and discarded, leaving the PMN and red blood-cell rich layer. […] The number of PMNs was counted on a haemocytometer. The number of cells at each time point was calculated as a percentage of the total number of cells at time zero, prior to complement challenge or LPS. […] Circulating PMN levels were monitored for 150 min following LPS injection, and the percentage change in PMN levels from zero time, when LPS was injected, was calculated."}, "C5a-induced neutropenia": {"test_system": "C5a-induced neutropenia", "test": "C5a-induced neutropenia after topical administration", "format": "in vivo", "settings": "topical 10 mg/per rat in 50% propylene glycol and 50% distilled H2O; C5a 2 μg/kg i.v.", "method": "Female Wistar rats weighing between 200-250 g were used for in vivo testing of all C5a receptor antagonists. Rats were anaesthetized using the procedure described above, and transferred on to a heating pad to ensure that body temperature was maintained throughout the experiment. A catheter was inserted in the femoral vein, secured with a suture and flushed with 100 μL of heparinised saline. Rats were dosed with either the antagonist or vehicle, intravenously (1 mg kg^−1 in 200 μL saline containing 10% ethanol, 10 min prior to LPS challenge) or topically ([…] challenge) Rats were infused i.v via the femoral catheter with either LPS (1 mg kg^−1 i.v in 100 μL saline), recombinant human C5a (2 μgkg^−1 in 100 μL), or vehicle control 10 minutes after the iv administration or 60 min after topical administration, of antagonist or vehicle control. All agents infused i.v were injected over a 2 min period, and were followed with a subsequent injection of 100 μL of saline to ensure complete delivery of the drug.\nWhole blood samples (0.1 mL) were collected from the tail vein at the time of drug and LPS or C5a administration. […] The number of PMNs was counted on a haemocytometer. The number of cells at each time point was calculated as a percentage of the total number of cells at time zero, prior to complement challenge or LPS. […]"}}}
{"smiles": "CC(=O)N[C@@H](Cc1ccccc1)C(=O)N[C@H]1CCCNC(=O)[C@H](CCCNC(=N)N)NC(=O)[C@H](Cc2c[nH]c3ccccc23)NC(=O)[C@@H](CC2CCCCC2)NC(=O)[C@@H]2CCCN2C1=O", "note": "[Compound 1, Ac-Phe-[Orn-Pro-dCha-Trp-Arg]]", "values": [{"measurement": "ischemia-reperfusion induced neutropenia", "setting": "gut ischemia-reperfusion; 1 mg/kg i.v. and 10 mg/kg p.o.", "value": "significantly inhibited"}, {"measurement": "gut ischemia-reperfusion induced plasma aspartate aminotransferase", "setting": "gut ischemia-reperfusion; 1 mg/kg i.v. and 1,10 mg/kg", "value": "significantly reduced"}, {"measurement": "gut ischemia-reperfusion induced tissue damage (histopathology)", "setting": "gut ischemia-reperfusion; 1 mg/kg i.v. and 1,10 mg/kg", "value": "significantly reduced"}, {"measurement": "increase in serum haptoglobin levels", "setting": "gut ischemia-reperfusion; 1 mg/kg i.v. and 1,10 mg/kg p.o.", "value": "significantly inhibited"}, {"measurement": "change in serum TNF-α levels", "setting": "gut ischemia-reperfusion; 1 mg/kg i.v. and 1-10 mg/kg p.o.", "value": "completely inhibited"}, {"measurement": "ischemia-reperfusion induced neutropenia", "setting": "gut ischemia-reperfusion; 1 mg/kg p.o.", "value": "no inhibition"}, {"measurement": "vascular leakage associated with a dermal Arthus reaction", "setting": "dermal Arthus reaction; FIG. 1", "value": "inhibition"}, {"measurement": "rise in circulating TNFα associated with a dermal Arthus reaction", "setting": "dermal Arthus reaction; FIG. 2", "value": "inhibition"}, {"measurement": "neutropenia response to i.v. LPS", "setting": "[1]", "value": "inhibited the neutropenia response"}, {"measurement": "neutropaenic effects of i.v. C5a", "setting": "C5a-induced neutropenia", "value": "prevent the neutropaenic effects of C5a"}]}
